Measured values published in patent US10537567B2, “Kinase inhibitors for treatment of disease” (BioAxone BioSciences, Inc., priority 2017, dated 2020).
Entries after “also recorded” stand apart in the source; their conditions may differ.

Experiments:
PKA [1] = target: T1, PKA (Homo sapiens, UniProt P17612); assay: Single dose inhibition assay of key AGC class kinases; assay type: biochemical; settings: 10 μM API
Method: Molecular modeling and rational drug design were used to create and screen over 50 ROCK inhibitors. These ROCK inhibitors were screened for selectivity for ROCK2 and ability to promote neurite outgrowth. Several lead inhibitors came out of this screen and further screened for inhibition of key AGC class kinases by a single dose inhibition assay performed with 10 μM active pharmaceutical ingredient (API). The lead compound is chiral. […] They have different selectivity for ROCK2 (Table 2) and different off-target profiles (Table 1; FIG. 1).

[2] = target: T2, norepinephrine transporter (NET) (Homo sapiens, UniProt P23975); assay: Safety screen; assay type: biochemical; settings: 10,000 nM API
T2 construct: purchased DiscoverX
T2 sequence (P23975 whole entry): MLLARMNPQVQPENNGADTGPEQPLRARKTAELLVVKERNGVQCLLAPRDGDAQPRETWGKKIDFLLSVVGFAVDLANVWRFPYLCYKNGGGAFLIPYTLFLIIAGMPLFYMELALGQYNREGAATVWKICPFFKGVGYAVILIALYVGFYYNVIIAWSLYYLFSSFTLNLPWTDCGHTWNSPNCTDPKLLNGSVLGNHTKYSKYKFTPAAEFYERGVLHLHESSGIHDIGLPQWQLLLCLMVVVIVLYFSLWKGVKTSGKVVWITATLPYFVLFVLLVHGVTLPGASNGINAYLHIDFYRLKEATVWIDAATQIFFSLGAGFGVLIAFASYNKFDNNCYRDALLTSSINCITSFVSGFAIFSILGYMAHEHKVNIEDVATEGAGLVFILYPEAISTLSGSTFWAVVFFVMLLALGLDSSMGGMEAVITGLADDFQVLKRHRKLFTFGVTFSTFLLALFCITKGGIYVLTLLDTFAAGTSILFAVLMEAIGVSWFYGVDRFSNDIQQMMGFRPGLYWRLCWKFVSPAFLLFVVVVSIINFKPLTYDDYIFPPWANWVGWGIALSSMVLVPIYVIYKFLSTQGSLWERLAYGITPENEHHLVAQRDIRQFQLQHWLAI
Method: (§1) A 468-target kinome screen and a safety screen were carried out to examine the off-target profiles of different kinase inhibitors (DiscoverX, Freemont, Calif.). The kinome screen is a binding assay where API interference of kinase domain/substrate binding is assessed as percent of control. Less than 10% binding (or >90% binding inhibition) is most biologically relevant and considered as a ‘hit’. BA-2017 only had 7 off-target hits compared to BA-1049 and Netarsudil, which both had 11 hits (Table 1) (Studirvant et al. 2016 Bioorg Med Chem Lett. 26(10):2475-2480). […] Published data for Netarsudil were with 200 times less API. […] The NET activity likely helps to decrease IOP but might increase hyperemia, while the SERT activity might have long-term safety consequences (Costagliola et al. 2004 CNS drugs 18(8): p. 475-484).
(§2) These targets include GPCRs, transporters, ion channels, nuclear receptors, non-kinase enzymes.

[3] = target: T3, serotonin transporter (SERT) (Homo sapiens, UniProt P31645); assay: Safety screen; assay type: biochemical; settings: 10,000 nM API
T3 construct: purchased DiscoverX
T3 sequence (P31645 whole entry): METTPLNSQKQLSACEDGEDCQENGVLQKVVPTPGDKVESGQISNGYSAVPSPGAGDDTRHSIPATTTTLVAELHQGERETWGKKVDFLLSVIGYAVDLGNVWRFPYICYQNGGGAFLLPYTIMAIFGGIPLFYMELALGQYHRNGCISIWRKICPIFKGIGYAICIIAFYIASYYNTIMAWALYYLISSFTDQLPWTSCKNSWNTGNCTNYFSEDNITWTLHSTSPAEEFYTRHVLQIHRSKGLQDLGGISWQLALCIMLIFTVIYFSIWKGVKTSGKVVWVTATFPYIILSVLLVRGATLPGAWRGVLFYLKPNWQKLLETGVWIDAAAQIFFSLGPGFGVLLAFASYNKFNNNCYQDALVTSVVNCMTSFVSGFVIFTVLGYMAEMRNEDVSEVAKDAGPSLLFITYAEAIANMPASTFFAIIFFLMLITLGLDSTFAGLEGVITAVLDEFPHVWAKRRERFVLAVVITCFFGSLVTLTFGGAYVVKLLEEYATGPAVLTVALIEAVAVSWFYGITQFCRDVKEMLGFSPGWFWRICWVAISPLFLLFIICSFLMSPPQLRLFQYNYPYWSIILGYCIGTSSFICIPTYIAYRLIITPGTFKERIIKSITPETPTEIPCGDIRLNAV
Method: as §1, §2

PKC ε = target: T4, PKC ε (Homo sapiens, UniProt Q02156); assay: DiscoverX kinome screen; assay type: binding; settings: 10,000 nM API
T4 construct: are incubated with DNA-tagged kinase domains tagged; DNA tag; purchased DiscoverX
T4 sequence (Q02156 408-668 limits assumed): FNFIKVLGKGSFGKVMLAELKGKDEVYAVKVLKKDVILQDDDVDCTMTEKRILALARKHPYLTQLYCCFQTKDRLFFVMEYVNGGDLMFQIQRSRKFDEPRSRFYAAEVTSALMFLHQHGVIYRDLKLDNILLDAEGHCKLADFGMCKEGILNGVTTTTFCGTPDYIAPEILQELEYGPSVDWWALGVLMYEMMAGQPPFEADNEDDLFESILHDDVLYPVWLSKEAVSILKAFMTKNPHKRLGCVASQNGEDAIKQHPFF
Method: as §1
(§3) In the kinome screen BA-2017 had fewer off-target hits (Table 1) than BA-1049. […] An interesting hit from the kinome screen was on Abl (Table 1), an oncogene that also regulates many cellular activities, including vascular leakage.

PKC Δ = target: T5, PKC Δ (Homo sapiens, UniProt Q05655); assay: DiscoverX kinome screen; assay type: binding; settings: 10,000 nM API
T5 construct: are incubated with DNA-tagged kinase domains tagged; DNA tag; purchased DiscoverX
T5 sequence (Q05655 349-603 limits assumed, stated change not applied): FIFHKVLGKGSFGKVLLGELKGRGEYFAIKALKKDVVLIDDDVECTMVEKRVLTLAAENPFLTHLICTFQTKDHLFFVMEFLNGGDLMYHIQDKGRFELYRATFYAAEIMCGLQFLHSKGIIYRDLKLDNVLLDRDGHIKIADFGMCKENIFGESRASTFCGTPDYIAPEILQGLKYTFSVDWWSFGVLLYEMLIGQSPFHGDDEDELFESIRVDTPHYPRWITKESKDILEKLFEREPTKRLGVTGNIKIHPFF
Method: as §1, §3

GRK1 = target: T6, GRK1 (Homo sapiens, UniProt Q15835); assay: DiscoverX kinome screen; assay type: binding
T6 construct: are incubated with DNA-tagged kinase domains tagged; DNA tag; purchased DiscoverX
T6 sequence (Q15835 190-455 limits assumed): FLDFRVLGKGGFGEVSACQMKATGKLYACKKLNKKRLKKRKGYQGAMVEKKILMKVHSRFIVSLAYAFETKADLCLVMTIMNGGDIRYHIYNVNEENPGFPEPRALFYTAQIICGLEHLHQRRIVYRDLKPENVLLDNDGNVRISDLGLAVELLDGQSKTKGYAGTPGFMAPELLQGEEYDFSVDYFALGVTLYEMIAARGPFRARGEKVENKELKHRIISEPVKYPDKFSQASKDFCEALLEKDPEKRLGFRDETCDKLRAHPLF
Method: as §1, §3

468-target kinome screen = assay: DiscoverX kinome screen, off-target hits; assay type: binding, human; settings: 10,000 nM API; for # Hits <10% binding: hit = less than 10% binding (>90% binding inhibition)
Method: as §1, §3

[4] = Oral dosing of cynomolgus monkeys, systemic side effects; assay type: in vivo; settings: 18 mg/kg oral gavage, 4 monkeys
Method: Oral dosing of 4 cynomolgus monkeys dosed with 18 mg/kg oral BA-1049 by oral gavage were completed to understand potential systemic side effects. The only side effects noticed at this dose was squinting by the monkeys.

ROCK2 [5] = target: T7, ROCK2 (Homo sapiens, UniProt O75116); assay: Direct filter-binding radiometric kinase assay (Eurofins) at Km ATP; assay type: biochemical; parameters: purchased Eurofins Testing (Dundee, Scotland, UK); settings: for ROCK1/ROCK2 (fold difference): IC50 at respective Km ATP
Method: ROCK1 and ROCK2 IC50 determinations were made using ATP concentrations at the Km ATP of 70 μM and 15 μM for ROCK1 and ROCK2, respectively.
For the data shown in Table 4, IC50 inhibition curves were performed at the respective Km for ATP for both ROCK1 and ROCK2. Performing these assays at the Km of ATP gives a better representation of the inhibitory activity. Other comparisons where differing kinases are tested at a single ATP concentration can potentially misrepresent the comparative efficacy since enzyme inhibitory activity tested below the Km for ATP of the enzyme, produces a circumstance where the enzyme is actually not constantly bound with ATP and the reaction velocity becomes sub-optimal.
Target sequence in this assay (O75116 whole entry): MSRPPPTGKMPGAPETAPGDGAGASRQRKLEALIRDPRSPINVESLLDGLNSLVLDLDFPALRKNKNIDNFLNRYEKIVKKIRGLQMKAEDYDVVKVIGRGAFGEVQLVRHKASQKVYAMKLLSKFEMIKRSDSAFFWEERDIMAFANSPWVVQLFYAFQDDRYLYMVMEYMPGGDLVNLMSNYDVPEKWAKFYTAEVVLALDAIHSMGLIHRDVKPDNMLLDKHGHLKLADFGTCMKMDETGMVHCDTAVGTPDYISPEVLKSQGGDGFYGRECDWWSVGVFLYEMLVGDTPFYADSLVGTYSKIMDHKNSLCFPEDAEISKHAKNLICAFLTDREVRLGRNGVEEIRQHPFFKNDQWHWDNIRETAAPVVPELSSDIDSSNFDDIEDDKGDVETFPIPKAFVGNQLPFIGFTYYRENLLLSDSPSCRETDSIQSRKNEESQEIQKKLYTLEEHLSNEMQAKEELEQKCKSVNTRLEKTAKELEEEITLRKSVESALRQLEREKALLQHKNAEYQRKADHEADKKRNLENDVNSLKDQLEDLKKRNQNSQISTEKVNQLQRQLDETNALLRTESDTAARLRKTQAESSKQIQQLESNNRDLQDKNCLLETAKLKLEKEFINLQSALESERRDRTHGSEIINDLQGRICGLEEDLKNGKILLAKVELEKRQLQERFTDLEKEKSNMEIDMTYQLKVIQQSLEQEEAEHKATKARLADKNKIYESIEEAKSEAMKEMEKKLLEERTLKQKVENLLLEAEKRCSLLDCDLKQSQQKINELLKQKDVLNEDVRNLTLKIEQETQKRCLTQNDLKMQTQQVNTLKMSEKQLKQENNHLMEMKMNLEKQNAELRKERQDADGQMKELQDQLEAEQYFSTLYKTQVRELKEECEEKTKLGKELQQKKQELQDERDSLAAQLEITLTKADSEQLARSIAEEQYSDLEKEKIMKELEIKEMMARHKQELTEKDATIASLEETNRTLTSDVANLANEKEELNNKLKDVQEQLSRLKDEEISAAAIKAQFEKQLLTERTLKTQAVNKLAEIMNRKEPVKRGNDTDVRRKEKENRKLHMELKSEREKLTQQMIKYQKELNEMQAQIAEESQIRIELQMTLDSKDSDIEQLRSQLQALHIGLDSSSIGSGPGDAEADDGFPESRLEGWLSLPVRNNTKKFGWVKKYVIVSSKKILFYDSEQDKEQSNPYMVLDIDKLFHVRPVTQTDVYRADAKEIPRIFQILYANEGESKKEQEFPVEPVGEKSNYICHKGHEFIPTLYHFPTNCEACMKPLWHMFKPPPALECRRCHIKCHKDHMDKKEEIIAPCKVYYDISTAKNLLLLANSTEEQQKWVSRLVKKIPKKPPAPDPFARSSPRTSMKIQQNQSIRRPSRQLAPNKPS

ROCK1 [6] = target: T8, ROCK1 (Homo sapiens, UniProt Q13464); assay: DiscoverX kinome screen; assay type: binding; parameters: are incubated with DNA-tagged kinase domains tagged; DNA tag; purchased DiscoverX; settings: 10,000 nM API
Method: as §1, §3
Target sequence in this assay (Q13464 76-338 limits assumed): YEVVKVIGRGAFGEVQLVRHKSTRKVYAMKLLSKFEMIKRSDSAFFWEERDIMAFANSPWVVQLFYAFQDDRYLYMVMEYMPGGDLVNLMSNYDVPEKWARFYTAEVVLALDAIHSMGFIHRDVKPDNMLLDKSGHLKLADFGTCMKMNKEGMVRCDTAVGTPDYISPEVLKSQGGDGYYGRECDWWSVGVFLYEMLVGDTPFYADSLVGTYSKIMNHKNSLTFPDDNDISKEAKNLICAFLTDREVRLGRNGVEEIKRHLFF

ROCK2 [7] = target: T7, ROCK2; assay: DiscoverX kinome screen; assay type: binding; parameters: are incubated with DNA-tagged kinase domains tagged; DNA tag; purchased DiscoverX; settings: 10,000 nM API
Method: as §1, §3
Target sequence in this assay (O75116 92-354 limits assumed): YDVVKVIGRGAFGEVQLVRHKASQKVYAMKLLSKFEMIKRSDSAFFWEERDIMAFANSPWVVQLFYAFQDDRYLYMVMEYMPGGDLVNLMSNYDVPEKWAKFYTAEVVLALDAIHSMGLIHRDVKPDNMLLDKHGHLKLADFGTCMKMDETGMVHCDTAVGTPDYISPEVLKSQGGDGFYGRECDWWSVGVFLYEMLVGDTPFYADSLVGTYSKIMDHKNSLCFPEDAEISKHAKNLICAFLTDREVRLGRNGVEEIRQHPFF

[8] = Brain and blood vessel exposure after oral administration; assay type: in vivo, Sprague Dawley rats
Method: (§4) Adult Sprague Dawley rats (Charles River Laboratories) were used for this experiment. […] One g of tissue was homogenized in 1 mL of 1×PBS. Homogenates were precipitated by pipetting 200 μL of homogenate into a tube using aseptically cut off 1000 μL pipette tips to prevent clogging. Samples are further diluted with 100 μL PBS to aid in precipitation. 900 μL of cold methanol was added to each sample and samples were vortexed for 5 to 10 seconds. Samples were placed at 4° C. for 30 to 40 min and then centrifuged at 10,000 g for 15 min at 4° C. The supernatant is collected and stored at −80° C. until analyzed.
Pathological angiogenesis that occurs in the retina is a major feature of leading blinding diseases, and particularly associated with diabetic retinopathy and age-related macular degeneration.

ROCK2 [9] = target: T7, ROCK2; assay: IC50 determined at 10 μM ATP; assay type: biochemical; parameters: purchased Eurofins Testing (Dundee, Scotland, UK); settings: for IC50: 10 μM ATP (below Km), * = preliminary
Excerpt: The data in Table 2 were obtained at ATP concentration below those corresponding to Km.
Target sequence in this assay (O75116 whole entry): as the sequence (O75116 whole entry) above

ROCK1 [10] = target: T8, ROCK1; assay: IC50 determined at 10 μM ATP; assay type: biochemical; parameters: purchased Eurofins Testing (Dundee, Scotland, UK); settings: 10 μM ATP (below Km)
[11] = Penetration and distribution in ocular tissues after topical instillation (LC-MS); assay type: in vivo, Sprague Dawley rats; settings: topical 3% solution of metabolite, 20 minutes
Method: as §4
For the optic nerve sample, the concentration is shown per length of optic nerve (right y-axis). […] Therefore, drug is available in the retina and optic nerve for treating these tissues affected in glaucoma and other retinal diseases.
In FIG. 14 we examined the ability of metabolite to penetrate the ocular tissues of the eye after topical instillation of a 3% solution of metabolite. In comparison with FIG. 13, that also the metabolite has adequate penetration into ocular and CNS tissue. Of particular note is the penetration in the retina and presence in the optic nerve. All compounds were given topically as eye drops to the eye of adult Sprague Dawley rats. Twenty minutes later the indicated tissues were removed and the parent compound and active metabolite were analyzed by LC/MS.

[12] = followed 24 months; cited from earlier work
PKA [13] = target: T1, PKA; settings: cited from earlier work
[14] = cited from earlier work
[15] = clinical studies; cited from earlier work
PKA, PKC and CaMKII = settings: cited from earlier work

| SMILES | Safety Screen % inhibition NET [2] | Safety Screen % inhibition SERT [3] | Kinome Screen % inhibition PKC ε (PKC ε) | Kinome Screen % inhibition PKC Δ (PKC Δ) | Kinome Screen Other (other off-target kinase) (468-target kinome screen) | # Hits <10% binding (468-target kinome screen) | ROCK1/ROCK2 (fold difference) (ROCK2 [5]) | Kinome Screen % inhibition ROCK1 (ROCK1 [6]) | Kinome Screen % inhibition ROCK2 (ROCK2 [7]) | Exposure in blood vessels [8] | IC50 (ROCK2 [9]) | Hyperemia in humans [15] | further results |
| --- | --- | --- | --- | --- | --- | --- | --- | --- | --- | --- | --- | --- | --- |
| C[C@@H](N)C1CCN(S(=O)(=O)c2cccc3cnccc23)CC1 [BA-1049] | none | none | 95% | <70% | none | 11 | 43.4 | >99% | >99% | accumulate at high concentrations in blood vessels | 240 nM |  | Inhibition of PKA (PKA [1]): Neither compound inhibited PKA; Off-target activity on GRK1 (GRK1): has some activity toward G-protein couple protein kinase1; also recorded: showed binding to G-protein couple protein kinase1 (GRK1); Side effects [4]: squinting; IC50 (ROCK2 [5]; ATP at Km, 15 μM, * = higher purity BA-1076): 599 nM; Brain penetrance [8]: is able to cross the blood brain barrier; Fold-difference (ROCK2 [9]; ROCK1 vs ROCK2 IC50 at 10 μM ATP): 16; IC50 (ROCK1 [10]): 3.9 µM |
| C[C@@H](N)C1CCN(S(=O)(=O)c2cccc3c(=O)[nH]ccc23)CC1 [BA-2017] | none | none | 94.7% | <85% | GRK1 | 7 | 16.5 | >99% | >99% | accumulate at high concentrations in blood vessels | 50 nM |  | Penetration into ocular tissues [11]: can penetrate ocular tissue |
| C[C@@H](N)[C@H]1CC[C@H](C(=O)Nc2ccncc2)CC1 [Compound Y27432, Y27432] |  |  |  |  |  |  |  |  |  |  |  |  | Corneal clarity and vision [12]: corneal clarity improved and vision improved |
| C[C@@H](N)[C@H]1CC[C@H](C(=O)Nc2ccncc2)CC1 [Compound Y-27632, Y-27632] |  |  |  |  |  |  |  |  |  |  |  |  | Binding to PKA (PKA [13]): all bind PKA |
| Cc1ccc(C(=O)OCc2ccc([C@@H](CN)C(=O)Nc3ccc4cnccc4c3)cc2)c(C)c1 [Netarsudil] |  |  |  |  |  |  |  |  |  |  |  | cause hyperemia (red eyes) as a major side effect | Duration of hyperemia on day 1 ([14]; 0.04% Netarsudil): at least 8 hours; Duration of mild hyperemia ([14]; Dutch belted rabbits): 4 to 8 h |
| C[C@H]1CNCCCN1S(=O)(=O)c1cccc2cncc(F)c12 [Ripasudil] |  |  |  |  |  |  |  |  |  |  |  | more frequent and of longer duration than Netarsudil; also recorded: cause hyperemia (red eyes) as a major side effect | Inhibition of PKA, PKC and CaMKII (PKA, PKC and CaMKII): both inhibit PKA, PKC and CaMKII |
